Experiment: xn = mol fraction of the nth substance listed
Details: 298.15 K, Liquid

CCCCCCCl [1-chlorohexane] + CN(C)C=O
mass density [kg/m3]
Details | x2 = 0.097 | x2 = 0.2019 | x2 = 0.2707 | x2 = 0.4007 | x2 = 0.5017 | x2 = 0.6155 | x2 = 0.6988 | x2 = 0.7993 | x2 = 0.9018
100 kPa | 876.9 | 881.2 | 884.4 | 891.3 | 897.4 | 905.4 | 912.7 | 921.8 | 932.6
2000 kPa | 878.5 | 882.8 | 885.9 | 892.8 | 898.8 | 906.9 | 914 | 923.1 | 933.8
4000 kPa | 880.2 | 884.4 | 887.5 | 894.3 | 900.3 | 908.4 | 915.5 | 924.4 | 935.1
6000 kPa | 881.8 | 886 | 889.1 | 895.8 | 901.8 | 909.8 | 916.8 | 925.7 | 936.4
8000 kPa | 883.4 | 887.6 | 890.7 | 897.3 | 903.3 | 911.2 | 918.2 | 927 | 937.6
10000 kPa | 885.1 | 889.3 | 892.3 | 898.8 | 904.8 | 912.7 | 919.6 | 928.4 | 938.9
11900 kPa | – | – | – | – | – | 914 | – | – | –
12000 kPa | 886.7 | 890.8 | 893.8 | 900 | 906.3 | – | 920.9 | 929.7 | 940.1
13900 kPa | – | – | – | – | – | – | – | 930.9 | –
14000 kPa | 888.2 | 892.3 | 895.2 | 901.8 | 907.6 | 915.4 | 922.3 | – | 941.3
16000 kPa | 889.7 | 893.8 | 896.7 | 903.2 | 909.1 | 916.8 | 923 | 932.1 | 942.5
17900 kPa | – | – | – | – | – | – | – | 933.3 | –
18000 kPa | 891.2 | 895.3 | 898.1 | 904.6 | 910.4 | 918.1 | 924.9 | – | 943.6
20000 kPa | 892.8 | 896.6 | 899.6 | 906 | 911.8 | 919.5 | 926.2 | 934.6 | 944.9
